# Where a name gives a salt, the structure may show the parent alone. Read-outs that look alike come from different tables or passages of the source.
# Columns and labels:
# [1] = Tocopherol and tocotrienol contents in yolk by HPLC (Example 1); type: in vivo, laying hens (Lohmann Selected Leghorn)
# Procedure: (§1) At the start of the trial, the laying hens (Lohmann Selected Leghorn) had been laying for 28 weeks. One treatment group consisted of 10 hens. The birds were initially fed with the various active ingredients for 4 weeks. The eggs were then collected for the analyses. 3 independent yolk pools were formed from 6 eggs in each case and were deep-frozen until analyzed. Total cholesterol and triglycerides in the yolk were analyzed by enzymatic methods. The analyses were carried out as stated in the handbook "Veterinarmedizinische Laboruntersuchungen fur die Diagnose und Verlaufskontrolle" (1985), 3rd edition, published by Boehringer Mannheim GmbH, Mannheim.
# Tocopherols and tocotrienols in the yolk pools were determined by HPLC. To do this, the sample is hydrolyzed in aqueous alcoholic medium and extracted several times with diethyl ether. Quantification takes place by comparison with external standards.
# Stationary phase: Spherisorb CN 5 μm, 250×4 mm
# Mobile phase: n-Hexane with 0.25% i-propanol
# Fluorescence detection: 292 nm (extinction) 326 nm (emission)
# [2] = tested on: triglycerides in the yolk; experiment: Triglycerides in egg yolk, laying-hen feeding trial (Example 1); type: in vivo, laying hens (Lohmann Selected Leghorn); conditions: 4 weeks
# Procedure: as §1
# (§2) The triglycerides are determined enzymatically via their glycerol content. The triglycerides are cleaved enzymatically by the enzymes lipase and esterase. The resulting glycerol is phosphorylated by ATP to glycerol 3-phosphate in the reaction catalyzed by glycerol kinase GK.
# glycerol+ATP.revreaction.glycerol 3-phosphate+ADP
# The resulting ADP is converted by pyruvate kinase (PK) with phosphoenolpyruvate (PEP) back into ATP, with formation of pyruvate. [drawing 6] Pyruvate is hydrogenated to lactate by lactate dehydrogenase (LDH) with NADH, the NADH being oxidized to NAD. [drawing 7]
# The amount of NADH consumed during the reaction is equivalent to the amount of glycerol. NADH is the measured variable and can easily be determined from its absorption at Hg 366 nm, Hg 334 nm or 340 nm.
# (§3) The data were subjected to analysis of variance, and differences between means were ranged by the Duncan test.
# [3] = tested on: total cholesterol in the yolk; experiment: Total cholesterol in egg yolk, laying-hen feeding trial (Example 1); type: in vivo, laying hens (Lohmann Selected Leghorn); conditions: 4 weeks
# Procedure: as §1
# (§4) For the cholesterol determination, the cholesterol esters were cleaved to cholesterol and fatty acid by the action of cholesterol esterase. Free cholesterol is converted by atmospheric oxygen with the involvement of cholesterol oxidase into Δ^4 -cholestenone and hydrogen peroxide. The resulting hydrogen peroxide forms with 4-aminophenazone and phenol through the catalytic action of peroxidase a red dye whose intensity of color is directly proportional to the cholesterol concentration and can be measured at 500 to 550 nm.
# as §3
# plasma cholesterol [4] = conditions: broilers, when cholesterol was fed at the same time; cited from earlier work
# HMG-CoA reductase [5] = conditions: broilers, supplementation; cited from earlier work
# [6] = tested on: cholesterol content of poultry eggs; conditions: cited from earlier work; for reduction of cholesterol content of poultry eggs: literature (Elkin et al.)
# [7] = cited from earlier work
# triglycerides in yolk = experiment: Triglycerides in egg yolk, laying-hen feeding trial (Example 2); type: in vivo, laying hens; conditions: control 170.4
# Procedure: as §2
# (§5) Another feeding experiment was carried out in analogy to Example 1. In this case the intention was to test not only α- and δ-tocotrienol but also a tocotrienol precursor (4-oxo-γ-tocotrienol) and other terpenoids such as farnesyl acetate, perillyl alcohol, linalool and β-ionone, in laying hens.
# (§6) The trial protocol corresponds to that in Example 1 but with the following amendments:
# (§7) The number of birds comprised 8 hens per treatment.
# (§8) Triglyceride and cholesterol were determined in 4 independent yolk pools(each from 6 eggs) and plasma.
# plasma cholesterol [8] = experiment: Cholesterol in plasma, laying-hen feeding trial (Example 2); type: in vivo, laying hens; conditions: control 125.3
# From the text: as §4, §5, §6, §7
# (§9) 4 birds in each case from the control and the high dosages were sacrificed at the end of the trial. After taking blood to obtain plasma, the birds were completely exsanguinated. The liver was then removed and deep frozen until analyzed.
# as §8
# cholesterol in yolk = experiment: Cholesterol in egg yolk, laying-hen feeding trial (Example 2); type: in vivo, laying hens; conditions: for Cholesterol, yolk: control 10.23; for reduction in yolk cholesterol: significant; for trend in yolk cholesterol content: Example 2
# From the text: as §4, §5, §6, §7, §8
# plasma triglyceride = experiment: Triglycerides in plasma, laying-hen feeding trial (Example 2); type: in vivo, laying hens; conditions: for Triglycerides, plasma: control 2496; for reduction of plasma triglyceride level: Example 2, maximum
# Procedure: as §2, §5, §6, §7, §9, §8
# tumors = conditions: cell culture and rats and mice; cited from earlier work
# HMG-CoA reductase [9] = conditions: cell culture and rats and mice; cited from earlier work
# [10] = tested on: cholesterol synthesis in macrophages; conditions: Fuhrmann et al. 1997; cited from earlier work
# [11] = tested on: β-hydroxy-β-methyl-glutaryl (HMG)-CoA reductase; conditions: cited from earlier work
# [12] = 1000 mg/kg feed, after hydrolysis
# [13] = 20 mg/kg feed, after hydrolysis
# [14] = 500 mg/kg feed, after hydrolysis
# [15] = 500 mg/kg feed, significant, complete yolk
# [16] = both dosages (100 and 1000 mg/kg feed)
compound,measurement,setting,value
"CC(=O)Oc1c(C)c(C)c2c(c1C)CCC(C)(CCCC(C)CCCC(C)CCCC(C)C)O2 (racemic) [vitamin E (all-rac-α-tocopheryl acetate), all-rac-α-tocopheryl acetate, reference compound]",α-Tocopherol content in yolk,[1]; [12],23064 μg/yolk
same,α-Tocotrienol content in yolk,[1]; [12],227 μg/yolk
same,γ-Tocopherol content in yolk,[1]; [12],188 μg/yolk
same,δ-Tocopherol content in yolk,[1]; [12],36 μg/yolk
same,δ-Tocotrienol content in yolk,[1]; [12],0 μg/yolk
same,α-Tocopherol content in yolk,"[1]; 1000 mg/kg feed, control 0.48 mg",23 mg
same,effect on γ-tocopherol in the yolk,[1]; high α-tocopherol dosage (1000 mg/kg feed),reduction in γ-tocopherol in the yolk
same,effect on triglycerides in the yolk,[2]; 1000 mg/kg feed,no effect
same,effect on cholesterol in the yolk,[3]; 1000 mg/kg feed,no effect
same,change in plasma cholesterol,plasma cholesterol [4],increase in plasma cholesterol
same,effect on HMG-CoA reductase,HMG-CoA reductase [5],stimulation of HMG-CoA reductase
CC(=O)Oc1cc2c(c(C)c1C)OC(C)(CC/C=C(\C)CC/C=C(\C)CCC=C(C)C)CC2 (racemic) [γ-tocotrienol acetate],α-Tocopherol content in yolk,[1]; [13],545 μg/yolk
same,α-Tocotrienol content in yolk,[1]; [13],0 μg/yolk
same,γ-Tocopherol content in yolk,[1]; [13],393 μg/yolk
same,δ-Tocopherol content in yolk,[1]; [13],57 μg/yolk
same,δ-Tocotrienol content in yolk,[1]; [13],0 μg/yolk
same,α-Tocopherol content in yolk,[1]; [14],433 μg/yolk
same,α-Tocotrienol content in yolk,[1]; [14],0 μg/yolk
same,γ-Tocopherol content in yolk,[1]; [14],425 μg/yolk
same,δ-Tocopherol content in yolk,[1]; [14],59 μg/yolk
same,δ-Tocotrienol content in yolk,[1]; [14],366 μg/yolk
same,reduction in triglycerides in the yolk,[2]; [15],15%
same,effect on triglycerides in the yolk,"[2]; low dosage, 20 mg/kg feed",no effect
same,reduction in cholesterol in the yolk,[3]; [15],15%
same,effect on cholesterol in the yolk,"[3]; low dosage, 20 mg/kg feed",no effect
"CC(C)c1c(Br)c(Br)c(-c2ccc(F)cc2)n1CC[C@@H](O)C[C@@H](O)CC(=O)O (relative stereo) [(±)-(R*,R*)-3,4-dibromo-β,δ-dihydroxy-2-(4-fluorophenyl)-5-(1-methylethyl)-1H-pyrrole-1-heptanoic acid, Na salt]",reduction of cholesterol content of poultry eggs,[6],30%
same,"influence on poultry performance parameters, such as the egg output",[7]; literature (Elkin et al.),without influencing
"CC(C)=CCC/C(C)=C/CC/C(C)=C/CCC1(C)CC(=O)c2cc(O)c(C)c(C)c2O1 (stereo not shown) [4-Oxo-γ-tocotrienol, 4-oxo-γ-tocotrienol]","Triglycerides, yolk",triglycerides in yolk; 50 mg/kg feed,188.3 mg/g
same,"Triglycerides, yolk",triglycerides in yolk; 500 mg/kg feed,172.0 mg/g
same,"Cholesterol, plasma",plasma cholesterol [8]; 500 mg/kg feed,166.8 mg/dL
same,"Cholesterol, yolk",cholesterol in yolk; 50 mg/kg feed,9.78 mg/g
same,"Cholesterol, yolk",cholesterol in yolk; 500 mg/kg feed,8.55 mg/g
same,reduction in yolk cholesterol,cholesterol in yolk; high dosage (500 mg/kg feed),up to 18%
same,"Triglycerides, plasma",plasma triglyceride; 500 mg/kg feed,4336 mg/dL
"CC(=O)OC/C=C(\C)CC/C=C(\C)CCC=C(C)C [Farnesyl acetate, farnesyl acetate]","Triglycerides, yolk",triglycerides in yolk; 750 mg/kg feed,177.1 mg/g
same,"Triglycerides, yolk",triglycerides in yolk; 7500 mg/kg feed,175.9 mg/g
same,"Cholesterol, plasma",plasma cholesterol [8]; 7500 mg/kg feed,129.3 mg/dL
same,"Cholesterol, yolk",cholesterol in yolk; 750 mg/kg feed,10.15 mg/g
same,"Cholesterol, yolk",cholesterol in yolk; 7500 mg/kg feed,10.23 mg/g
same,"Triglycerides, plasma",plasma triglyceride; 7500 mg/kg feed,1929 mg/dL
same,reduction of plasma triglyceride level,plasma triglyceride,≤ 25%
"C=CC(C)(O)CCC=C(C)C (stereo not shown) [Linalool, linalool]","Triglycerides, yolk",triglycerides in yolk; 100 mg/kg feed,187.5 mg/g
same,"Triglycerides, yolk",triglycerides in yolk; 1000 mg/kg feed,163.1 mg/g
same,"Cholesterol, plasma",plasma cholesterol [8]; 1000 mg/kg feed,211.6 mg/dL
same,"Cholesterol, yolk",cholesterol in yolk; 100 mg/kg feed,8.40 mg/g
same,"Cholesterol, yolk",cholesterol in yolk; 1000 mg/kg feed,8.97 mg/g
same,reduction in yolk cholesterol,cholesterol in yolk; [16],up to 18%
same,inhibition of tumors,tumors,inhibit tumors
same,inhibition of HMG-CoA reductase,HMG-CoA reductase [9],inhibit HMG-CoA reductase
same,"Triglycerides, plasma",plasma triglyceride; 1000 mg/kg feed,1907 mg/dL
"C=C(C)C1CC=C(CO)CC1 (stereo not shown) [Perillyl alcohol, perillyl alcohol]","Triglycerides, yolk",triglycerides in yolk; 500 mg/kg feed,188.5 mg/g
same,"Triglycerides, yolk",triglycerides in yolk; 5000 mg/kg feed,174.4 mg/g
same,"Cholesterol, plasma",plasma cholesterol [8]; 5000 mg/kg feed,165.3 mg/dL
same,"Cholesterol, yolk",cholesterol in yolk; 500 mg/kg feed,9.55 mg/g
same,"Cholesterol, yolk",cholesterol in yolk; 5000 mg/kg feed,9.53 mg/g
same,trend in yolk cholesterol content,cholesterol in yolk,trend toward reduced cholesterol contents in yolk
same,"Triglycerides, plasma",plasma triglyceride; 5000 mg/kg feed,2197 mg/dL
same,reduction of plasma triglyceride level,plasma triglyceride,≤ 25%
C=C(C)[C@H]1CC=C(C)CC1 [d-limonene],inhibition of tumors,tumors,inhibit tumors
same,inhibition of HMG-CoA reductase,HMG-CoA reductase [9],inhibit HMG-CoA reductase
"CC(C)=CCC/C(C)=C/CO [geraniol, reference compound]",inhibition of tumors,tumors,inhibit tumors
same,inhibition of HMG-CoA reductase,HMG-CoA reductase [9],inhibit HMG-CoA reductase
CC[C@H](C)C(=O)O[C@H]1C[C@@H](C)C=C2C=C[C@H](C)[C@H](CC[C@@H]3C[C@@H](O)CC(=O)O3)[C@H]21 [lovastatin],reduction of cholesterol content of poultry eggs,[6],15%
same,"influence on poultry performance parameters, such as the egg output",[7]; in vivo,without influencing
CC(C)=CCC/C(C)=C/C=C/C(C)=C/C=C/C(C)=C/C=C/C=C(C)/C=C/C=C(C)/C=C/C=C(\C)CCC=C(C)C [lycopene],inhibition of cholesterol synthesis in macrophages,[10],inhibit cholesterol synthesis in macrophages
CCC(C)(C)C(=O)O[C@H]1C[C@@H](C)C=C2C=C[C@H](C)[C@H](CC[C@@H]3C[C@@H](O)CC(=O)O3)[C@H]21 [simvastatin],effect on the cholesterol content in eggs,[6]; literature (Huggett et al.; Beyer and Jensen),no effect
"CC(=O)/C=C/C1=C(C)CCCC1(C)C [β-Ionone, β-ionone]","Triglycerides, yolk",triglycerides in yolk; 100 mg/kg feed,190.7 mg/g
same,"Triglycerides, yolk",triglycerides in yolk; 1000 mg/kg feed,184.8 mg/g
same,"Cholesterol, plasma",plasma cholesterol [8]; 1000 mg/kg feed,201.3 mg/dL
same,"Cholesterol, yolk",cholesterol in yolk; 100 mg/kg feed,9.03 mg/g
same,"Cholesterol, yolk",cholesterol in yolk; 1000 mg/kg feed,9.03 mg/g
same,reduction in yolk cholesterol,cholesterol in yolk; [16],up to 18%
same,inhibition of tumors,tumors,inhibit tumors
same,inhibition of HMG-CoA reductase,HMG-CoA reductase [9],inhibit HMG-CoA reductase
same,"Triglycerides, plasma",plasma triglyceride; 1000 mg/kg feed,1954 mg/dL
same,reduction of plasma triglyceride level,plasma triglyceride,≤ 25%
CC1=C(/C=C/C(C)=C/C=C/C(C)=C/C=C/C=C(C)/C=C/C=C(C)/C=C/C2=C(C)CCCC2(C)C)C(C)(C)CCC1 [β-carotene],inhibition of cholesterol synthesis in macrophages,[10],inhibit cholesterol synthesis in macrophages
CC(C)=CCC/C(C)=C/CC/C(C)=C/CCC1(C)CCc2cc(O)c(C)c(C)c2O1 (stereo not shown) [γ-tocotrienol],accumulation of γ-tocotrienol in the yolk,[1]; fed as γ-tocotrienol acetate,scarcely any accumulation
same,γ-tocotrienol detected in the yolk,"[1]; high dosage (500 mg/kg feed, as acetate)",366 µg
same,relative effect versus α-tocotrienol,[11]; HepG2 cell cultures,about 30 times
"CC(C)=CCC/C(C)=C/CC/C(C)=C/CCC1(C)CCc2cc(O)cc(C)c2O1 (stereo not shown) [δ-Tocotrienol, δ-tocotrienol]","Triglycerides, yolk",triglycerides in yolk; 50 mg/kg feed,185.2 mg/g
same,"Triglycerides, yolk",triglycerides in yolk; 500 mg/kg feed,163.9 mg/g
same,"Cholesterol, plasma",plasma cholesterol [8]; 500 mg/kg feed,163.0 mg/dL
same,"Cholesterol, yolk",cholesterol in yolk; 50 mg/kg feed,9.25 mg/g
same,"Cholesterol, yolk",cholesterol in yolk; 500 mg/kg feed,9.23 mg/g
same,trend in yolk cholesterol content,cholesterol in yolk,trend toward reduced cholesterol contents in yolk
same,"Triglycerides, plasma",plasma triglyceride; 500 mg/kg feed,2985 mg/dL
nicotinate [reference compound],effect of ester form by comparison with the alcohol and acetate forms,"[11]; U.S. Pat. No. 5,217,992",most pronounced

# — patent US6166067A, “Inhibitors of cholesterol-biosynthesis for reducing the cholesterol content of poultry eggs” (priority 1998, dated 2000)
